Experimental data as given in patent publication US10987359B2, “Oxadiazepinone derivatives and methods of treating hepatitis B infections” (priority 2016, dated 2021).

test system: HBV; test: HBV replication inhibition assay (BDNA assay) in HepG2.2.15 cells; type: cell-based; conditions: HBV replication assay (BDNA assay), HepG2.2.15 cells; read-out: DNA EC50
In short: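 Supernatant encapsidated HBV DNA was measured by bDNA after DNase digestion and proteinase K release. Stably HBV-integrated HepG2.2.15 cells had two 3-day compound exposures (0.5% DMSO). Signals were background-subtracted and normalized to DMSO wells, and EC50 was obtained by four-parameter fit.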

Question: Which EC50 does the source give for `C[C@@H]1Cc2nn3c(c2CN1C(=O)Nc1ccc(F)c(Br)c1)C(=O)N(C)OC(COCC(F)F)C3` (stereo in doubt) [Compound 122_D2, (4R*,9R)—N-(3-bromo-4-fluorophenyl)-4-((2,2-difluoroethoxy)methyl)-2,9-dimethyl-1-oxo-1,4,5,8,9,11-hexahydropyrido[4′,3′:3,4]pyrazolo[5,1-d][1,2,5]oxadiazepine-10(2H)-carboxamide] here?
Answer: 0.001 to 0.1 µM

Question: How did the EC50 turn out when `C[C@@H]1Cc2nn3c(c2CN1C(=O)Nc1ccc(F)c(C(F)(F)F)c1)C(=O)N(C)OC(CO)C3` (stereo in doubt) [Compound 082_E2, (4R*,9R)—N-(4-fluoro-3-(trifluoromethyl)phenyl)-4-(hydroxymethyl)-2,9-dimethyl-1-oxo-1,4,5,8,9,11-hexahydropyrido[4′,3′:3,4]pyrazolo[5,1-d][1,2,5]oxadiazepine-10(2H)-carboxamide] was run?
Answer: 0.001 to 0.1 µM

Question: Which EC50 does the source give for `C[C@@H]1Cc2nn3c(c2CN1C(=O)Nc1ccc(F)c(C(F)(F)F)c1)C(=O)N(C)OC(CF)C3` (stereo in doubt) [Compound 085_E2, (4R*,9R)—N-(4-fluoro-3-(trifluoromethyl)phenyl)-4-(fluoromethyl)-2,9-dimethyl-1-oxo-1,4,5,8,9,11-hexahydropyrido[4′,3′:3,4]pyrazolo[5,1-d][1,2,5]oxadiazepine-10(2H)-carboxamide] here?
Answer: 0.001 to 0.1 µM

Question: `C[C@@H]1Cc2nn3c(c2CN1C(=O)Nc1ccc(F)c(C(F)(F)F)c1)C(=O)N(C)OC(CNCC(F)F)C3` (single isomer, unassigned) [Compound 182_D2, (4R*,9R)-4-(((2,2-difluoroethyl)amino)methyl)-N-(4-fluoro-3-(trifluoromethyl)phenyl)-2,9-dimethyl-1-oxo-1,4,5,8,9,11-hexahydropyrido[4′,3′:3,4]pyrazolo[5,1-d][1,2,5]oxadiazepine-10(2H)-carboxamide] was tested. Which EC50 did it give?
Answer: 0.001 to 0.1 µM

Question: For `CNC(=O)C1Cn2nc3c(c2C(=O)N(C)O1)CN(C(=O)Nc1ccc(F)c(C#N)c1)[C@H](C)C3` (stereo in doubt) [Compound 112_D2, (4R*,9R)—N10-(3-cyano-4-fluorophenyl)-N4,2,9-trimethyl-1-oxo-1,4,5,8,9,11-hexahydropyrido[4′,3′:3,4]pyrazolo[5,1-d][1,2,5]oxadiazepine-4,10(2H)-dicarboxamide], which EC50 is on record?
Answer: 0.001 to 0.1 µM

Question: How did the EC50 turn out when `Cc1cc(NC(=O)N2Cc3c(nn4c3C(=O)N(C)OC(CO)C4)C[C@H]2C)ccc1F` (single isomer, unassigned) [Compound 083_E2, (4R*,9R)—N-(4-fluoro-3-methylphenyl)-4-(hydroxymethyl)-2,9-dimethyl-1-oxo-1,4,5,8,9,11-hexahydropyrido[4′,3′:3,4]pyrazolo [5,1-d][1,2,5]oxadiazepine-10(2H)-carboxamide] was run?
Answer: 0.001 to 0.1 µM

same assay, conditions: Hepatitis B virus, HepG2.2.15, HBV replication assay (BDNA assay), HepG2.2.15 cells; read-out: DNA EC50

Question: How did the EC50 turn out when `CN1OC(COCC(F)F)Cn2nc3c(c2C1=O)CN(C(=O)Nc1ccc(F)c(Cl)c1)CC3` (centres unmarked) [Compound 105, N-(3-chloro-4-fluoro-phenyl)-4-(2,2-difluoroethoxymethyl)-2-methyl-1-oxo-5,8,9,11-tetrahydro-4H-pyrido[2,3]pyrazolo[2,4-d][1,2,5]oxadiazepine-10-carboxamide] was run?
Answer: 0.001 to 0.1 µM

Question: How did the EC50 turn out when `CN1O[C@H](CN)Cn2nc3c(c2C1=O)CN(C(=O)Nc1ccc(F)c(C#N)c1)CC3` (stereo in doubt) [Compound 114_E1, (S*)-4-(aminomethyl)-N-(3-cyano-4-fluoro-phenyl)-2-methyl-1-oxo-5,8,9,11-tetrahydro-4H-pyrido[2,3]pyrazolo[2,4-d][1,2,5]oxadiazepine-10-carboxamide] was run?
Answer: 0.001 to 0.1 µM

Question: How did the EC50 turn out when `C[C@@H]1Cc2nn3c(c2CN1C(=O)Nc1ccc(F)c(Br)c1)C(=O)N(C)OC(CNCC(F)F)C3` (stereo in doubt) [Compound 184_D1, (4S*,9R)—N-(3-bromo-4-fluorophenyl)-4-(((2,2-difluoroethyl)amino)methyl)-2,9-dimethyl-1-oxo-1,4,5,8,9,11-hexahydropyrido[4′,3′:3,4]pyrazolo[5,1-d][1,2,5]oxadiazepine-10(2H)-carboxamide] was run?
Answer: 0.001 to 0.1 µM

Question: How did the EC50 turn out when `CN1OC(CO)Cn2nc3c(c2C1=O)CN(C(=O)Nc1ccc(Cl)c(Cl)c1)CC3` (centres unmarked) [Compound 012, N-(3,4-dichlorophenyl)-4-(hydroxymethyl)-2-methyl-1-oxo-1,4,5,8,9,11-hexahydropyrido[4′,3′:3,4]pyrazolo[5,1-d][1,2,5]oxadiazepine-10(2H)-carboxamide] was run?
Answer: 0.001 to 0.1 µM

Question: Which EC50 does the source give for `C[C@@H]1Cc2nn3c(c2CN1C(=O)Nc1ccc(F)c(Cl)c1)C(=O)N(C)OC(COCC(F)F)C3` (single isomer, unassigned) [Compound 121_D1, (4S*,9R)—N-(3-chloro-4-fluorophenyl)-4-((2,2-difluoroethoxy)methyl)-2,9-dimethyl-1-oxo-1,4,5,8,9,11-hexahydropyrido[4′,3′:3,4]pyrazolo[5,1-d][1,2,5]oxadiazepine-10(2H)-carboxamide] here?
Answer: 0.001 to 0.1 µM

Question: With `CN1OC(CO)Cn2nc3c(c2C1=O)CN(C(=O)Nc1cccc(Cl)c1)CC3(C)C` (centres unmarked) [Compound 046, N-(3-chlorophenyl)-4-(hydroxymethyl)-2,8,8-trimethyl-1-oxo-1,4,5,8,9,11-hexahydropyrido[4′,3′:3,4]pyrazolo[5,1-d][1,2,5]oxadiazepine-10(2H)-carboxamide] as the molecule, how does the EC50 read?
Answer: 0.1 to 0.5 µM

Question: `CN1OC(CO)Cn2nc3c(c2C1=O)CN(C(=O)Nc1cccc(C(F)(F)F)c1)CC3` (centres unmarked) [Compound 008, 4-(hydroxymethyl)-2-methyl-1-oxo-N-(3-(trifluoromethyl)phenyl)-1,4,5,8,9,11-hexahydropyrido[4′,3′:3,4]pyrazolo[5,1-d][1,2,5]oxadiazepine-10(2H)-carboxamide] was tested. Which EC50 did it give?
Answer: 0.001 to 0.1 µM

Question: `C[C@@H]1Cc2nn3c(c2CN1C(=O)Nc1cc(Cl)c(F)cc1F)C(=O)N(C)OC(COCC(F)F)C3` (stereo in doubt) [Compound 127_D2, (4R*,9R)—N-(5-chloro-2,4-difluorophenyl)-4-((2,2-difluoroethoxy)methyl)-2,9-dimethyl-1-oxo-1,4,5,8,9,11-hexahydropyrido[4′,3′:3,4]pyrazolo[5,1-d][1,2,5]oxadiazepine-10(2H)-carboxamide] was tested. Which EC50 did it give?
Answer: 0.001 to 0.1 µM

Question: `C[C@@H]1Cc2nn3c(c2CN1C(=O)Nc1ccc(F)c(C#N)c1)C(=O)N(C)OC(CNCC(F)F)C3` (stereo in doubt) [Compound 183_D1, (4S*,9R)—N-(3-cyano-4-fluorophenyl)-4-(((2,2-difluoroethyl)amino)methyl)-2,9-dimethyl-1-oxo-1,4,5,8,9,11-hexahydropyrido[4′,3′:3,4]pyrazolo[5,1-d][1,2,5]oxadiazepine-10(2H)-carboxamide] was tested. Which EC50 did it give?
Answer: 0.001 to 0.1 µM

Question: With `C[C@@H]1Cc2nn3c(c2CN1C(=O)Nc1ccc(F)c(C#N)c1)C(=O)N(C)N(C)CC3` [Compound 224, (R)-N-(3-cyano-4-fluorophenyl)-2,3,9-trimethyl-1-oxo-1,2,3,4,5,8,9,11-octahydro-10H-pyrido[4′,3′:3,4]pyrazolo[5,1-d][1,2,5]triazepine-10-carboxamide] as the molecule, how does the EC50 read?
Answer: 0.001 to 0.1 µM

Question: For `C[C@@H]1Cc2nn3c(c2CN1C(=O)Nc1ccc(F)c(C#N)c1)C(=O)N(C)N(CCO)CC3` [Compound 220, (R)—N-(3-Cyano-4-fluorophenyl)-3-(2-hydroxyethyl)-2,9-dimethyl-1-oxo-1,2,3,4,5,8,9,11-octahydro-10H-pyrido[4′,3′:3,4]pyrazolo[5,1-d][1,2,5]triazepine-10-carboxamide], which EC50 is on record?
Answer: 0.1 to 0.5 µM
